The results in this text go back to patent US9359377B2, “Substituted imidazo[1,2-a]imidazo[4′,5′:4,5]pyrrolo[1,2-d]pyrazines for treating respiratory syncytial virus infections” (Biota Scientific Management Pty Ltd., priority 2011, dated 2016).

One experiment deals with RSV A2. As to the kind of experiment: RSV antiviral cytopathic effect (CPE) assay in HEp2 cells, MTT readout. In kind it is cell-based, respiratory syncytial virus. The following applies: HEp2 cells infected with RSV A2, moi ~0.01, 5 days, inhibition of CPE by 50%; read-out: Activity Range (RSV A2 EC50 mean values). How it is done: RSV Antiviral Assay Protocol
Compounds of the invention were tested for their antiviral activity against respiratory syncytial virus. Cytopathic effect (CPE) assays were performed essentially as described in the literature (see, for example, Watanabe et al, 1994, J. Virological Methods, 48:257). Serial dilutions of the test compounds were made in 96 well plates. HEp2 cells (1.0×10^4 cells/well) were infected with RSV at a low multiplicity of infection (e.g. RSV A2 at an moi of ˜0.01) and added to plates to assess antiviral activity. Uninfected HEp2 cells were used to assess compound cytotoxicity. Assays were incubated for 5 days at 37° C. in a 5% CO2 atmosphere. The extent of CPE was determined via metabolism of the vital dye 3-(4,5-dimethylthiaxol-2-yl)-2,5-diphenyltetrazolium bromide (MTT). MTT (1 mg/ml) was added to each well and plates incubated for 2 hours incubation at 37° C. Wells were aspirated, iso-propanol (200 μL) was added and absorbance values read at 540/650 nm. Compound concentrations that inhibited CPE by 50% (EC50) and developed cytotoxicity (CC50) were calculated using non-linear regression analysis.
In the inventors' experience, replicate EC50 values usually fall within three standard deviations of the mean.
A general note: Cytopathic effects are the visible damage that an infection or toxin causes in cultured cells.
For “11a-(4-fluorophenyl)-1-(furan-2-ylacetyl)-2,3,11,11a-tetrahydro-1H,5H-imidazo[1,2-a]thieno[3′,2′:4,5]pyrrolo[1,2-d]pyrazin-5-one [Compound 22]”, the EC50 – broadly, the concentration at which the effect is half-maximal – was over 10000 nM.

Staying with this experiment, now noted: human respiratory syncytial virus, HEp-2, 120 h; HEp2 cells infected with RSV A2, moi ~0.01, 5 days, inhibition of CPE by 50%; read-out: Activity Range (RSV A2 EC50 mean values).
Regarding `O=C1c2cc3ccsc3n2CC2(c3ccc(F)cc3)N1CCN2S(=O)(=O)Cc1ccccc1` (centres unmarked) [Compound 26, 1-(benzylsulfonyl)-11a-(4-fluorophenyl)-2,3,11,11a-tetrahydro-1H,5H-imidazo[1,2-a]thieno[3′,2′:4,5]pyrrolo[1,2-d]pyrazin-5-one], the EC50 is over 10000 nM. The same measure, in the same setting: for `Cc1ccc(C23Cn4c(cc5ccsc54)C(=O)N2CCN3C(=O)c2conc2C)cc1` (centres unmarked) [Compound 7, 1-[(3-methyl-1,2-oxazol-4-yl)carbonyl]-11a-(4-methylphenyl)-2,3,11,11 a-tetrahydro-1H,5H-imidazo[1,2-a]thieno[3′,2′:4,5]pyrrolo[1,2-d]pyrazin-5-one] the value was at most 49 nM. The same measure, in the same setting: for `COc1ccc(C23Cn4c(cc5cccnc54)C(=O)N2CCN3C(=O)c2conc2C)cc1` (centres unmarked) [Compound 8, 12a-(4-methoxyphenyl)-1-[(3-methyl-1,2-oxazol-4-yl)carbonyl]-2,3,12,12a-tetrahydro-1H,5H-imidazo[1,2-a]pyrido[3′,2′:4,5]pyrrolo[1,2-d]pyrazin-5-one] the value was at most 49 nM; for `Cc1cc(C(=O)N2CCN3C(=O)c4cc5ccsc5n4CC23c2ccc(F)cc2)no1` (centres unmarked) [Compound 18, 11a-(4-fluorophenyl)-1-[(5-methyl-1,2-oxazol-3-yl)carbonyl]-2,3,11,11a-tetrahydro-1H,5H-imidazo[1,2-a]thieno[3′,2′:4,5]pyrrolo[1,2-d]pyrazin-5-one], over 10000 nM. `Cc1nocc1C(=O)N1CCN2C(=O)c3cc4cccnc4n3CC12c1ccc(F)cc1` (centres unmarked) [Compound 11, 12a-(4-fluorophenyl)-1-[(3-methyl-1,2-oxazol-4-yl)carbonyl]-2,3,12,12a-tetrahydro-1H,5H-imidazo[1,2-a]pyrido[3′,2′:4,5]pyrrolo[1,2-d]pyrazin-5-one]: the EC50 is at most 49 nM. Turning to `COc1ccc(C23Cn4c(cc5sccc54)C(=O)N2CCN3C(=O)c2conc2C)cc1` (centres unmarked) [Compound 5, 5a-(4-methoxyphenyl)-6-[(3-methyl-1,2-oxazol-4-yl)carbonyl]-5a,6,7,8-tetrahydro-5H,10H-imidazo[1,2-a]thieno[2′,3′:4,5]pyrrolo[1,2-d]pyrazin-10-one], the EC50 lay in the range of 100 to 499 nM. Consider `O=C1c2cc3ccsc3n2CC2(c3ccc(F)cc3)N1CCN2S(=O)(=O)c1ccccc1` (centres unmarked) [Compound 25, 11a-(4-fluorophenyl)-1-(phenylsulfonyl)-2,3,11,11a-tetrahydro-1H,5H-imidazo[1,2-a]thieno[3′,2′:4,5]pyrrolo[1,2-d]pyrazin-5-one], for which the EC50 was over 10000 nM. On the same count and under the same terms, in the case of `Cc1ccc(C23Cn4c(cc5cccnc54)C(=O)N2CCN3C(=O)c2conc2C)cc1` (centres unmarked) [Compound 10, 1-[(3-methyl-1,2-oxazol-4-yl)carbonyl]-12a-(4-methylphenyl)-2,3,12,12a-tetrahydro-1H,5H-imidazo[1,2-a]pyrido[3′,2′:4,5]pyrrolo[1,2-d]pyrazin-5-one] it was at most 49 nM; in that of `O=C1c2cc3ccsc3n2CC2(c3ccc(F)cc3)N1CCN2C(=O)C1CC1` (centres unmarked) [Compound 16, 1-(cyclopropylcarbonyl)-11a-(4-fluorophenyl)-2,3,11,11a-tetrahydro-1H,5H-imidazo[1,2-a]thieno[3′,2′:4,5]pyrrolo[1,2-d]pyrazin-5-one], over 10000 nM; in that of `COc1ccc(C23Cn4c(cc5ccsc54)C(=O)N2CCN3C(=O)c2conc2C)cc1` (centres unmarked) [Compound 1, 11a-(4-methoxyphenyl)-1-[(3-methyl-1,2-oxazol-4-yl)carbonyl]-2,3,11,11a-tetrahydro-1H,5H-imidazo[1,2-a]thieno[3′,2′:4,5]pyrrolo[1,2-d]pyrazin-5-one], at most 49 nM. Same read-out and setting: for `Cc1nocc1C(=O)N1CCN2C(=O)c3cc4ccsc4n3CC12c1ccc(F)cc1` (centres unmarked) [Compound 6, 11a-(4-fluorophenyl)-1-[(3-methyl-1,2-oxazol-4-yl)carbonyl]-2,3,11,11a-tetrahydro-1H,5H-imidazo[1,2-a]thieno[3′,2′:4,5]pyrrolo[1,2-d]pyrazin-5-one] the value was at most 49 nM; for `O=C(c1ccco1)N1CCN2C(=O)c3cc4ccsc4n3CC12c1ccc(F)cc1` (centres unmarked) [Compound 15, 11a-(4-fluorophenyl)-1-(furan-2-ylcarbonyl)-2,3,11,11a-tetrahydro-1H,5H-imidazo[1,2-a]thieno[3′,2′:4,5]pyrrolo[1,2-d]pyrazin-5-one], over 10000 nM.

On to `O=C(CC1CCCCC1)N1CCN2C(=O)c3cc4ccsc4n3CC12c1ccc(F)cc1` (stereo not drawn) [Compound 19, l-(cyclohexylacetyl)-11a-(4-fluorophenyl)-2,3,11,11a-tetrahydro-1H,5H-imidazo[1,2-a]thieno[3′,2′:4,5]pyrrolo[1,2-d]pyrazin-5-one], for which the EC50 is over 10000 nM.

As for `CC(C)C(=O)N1CCN2C(=O)c3cc4ccsc4n3CC21c1ccc(F)cc1` (centres unmarked) [Compound 17, 11a-(4-fluorophenyl)-1-(2-methylpropanoyl)-2,3,11,11a-tetrahydro-1H,5H-imidazo[1,2-a]thieno[3′,2′:4,5]pyrrolo[1,2-d]pyrazin-5-one], the EC50 is over 10000 nM. Regarding `Cn1nc(C(C)(C)C)cc1C(=O)N1CCN2C(=O)c3cc4ccsc4n3CC12c1ccc(F)cc1` (centres unmarked) [Compound 20, 1-[(3-tert-butyl-1-methyl-1H-pyrazol-5-yl)carbonyl]-11a-(4-fluorophenyl)-2,3,11,11a-tetrahydro-1H,5H-imidazo[1,2-a]thieno[3′,2′:4,5]pyrrolo[1,2-d]pyrazin-5-one], the EC50 was over 10000 nM. On the same count and under the same terms, for `COc1ccc(C23Cn4c(cc5occc54)C(=O)N2CCN3C(=O)c2conc2C)cc1` (centres unmarked) [Compound 3, 5a-(4-methoxyphenyl)-6-[(3-methyl-1,2-oxazol-4-yl)carbonyl]-5a,6,7,8-tetrahydro-5H,10H-furo[2′,3′:4,5]pyrrolo[1,2-a]imidazo[1,2-d]pyrazin-10-one] the value was 50 to 99 nM; for `Cc1ocnc1C(=O)N1CCN2C(=O)c3cc4ccsc4n3CC12c1ccc(F)cc1` (centres unmarked) [Compound 21, 11a-(4-fluorophenyl)-1-[(5-methyl-1,3-oxazol-4-yl)carbonyl]-2,3,11,11a-tetrahydro-1H,5H-imidazo[1,2-a]thieno[3′,2′:4,5]pyrrolo[1,2-d]pyrazin-5-one], 100 to 499 nM; for `O=C1c2cc3ccsc3n2CC2(c3ccc(F)cc3)N1CCN2S(=O)(=O)c1ccc([N+](=O)[O-])cc1` (centres unmarked) [Compound 27, 11a-(4-fluorophenyl)-1-[(4-nitrophenyl)sulfonyl]-2,3,11,11a-tetrahydro-1H,5H-imidazo[1,2-a]thieno[3′,2′:4,5]pyrrolo[1,2-d]pyrazin-5-one], 500 to 10000 nM. On the same count and under the same terms, for `O=C(NC1CCCCC1)N1CCN2C(=O)c3cc4ccsc4n3CC12c1ccc(F)cc1` (centres unmarked) [Compound 24, N-cyclohexyl-11a-(4-fluorophenyl)-5-oxo-2,3,11,11a-tetrahydro-1H,5H-imidazo[1,2-a]thieno[3′,2′:4,5]pyrrolo[1,2-d]pyrazine-1-carboxamide] the value was over 10000 nM; for `COc1ccc(C23Cn4c(cc5ccccc54)C(=O)N2CCN3C(=O)c2conc2C)cc1` (centres unmarked) [Compound 4, 12a-(4-methoxyphenyl)-1-[(3-methyl-1,2-oxazol-4-yl)carbonyl]-2,3,12,12a-tetrahydro-1H,5H-imidazo[1′,2′:4,5]pyrazino[1,2-a]indol-5-one], at most 49 nM; for `Cc1ccc(C23Cn4c(cc5ccsc54)C(=O)N2CCN3C(=O)c2conc2C)cn1` (centres unmarked) [Compound 13, 1-[(3-methyl-1,2-oxazol-4-yl)carbonyl]-11a-(6-methylpyridin-3-yl)-2,3,11,11a-tetrahydro-1H,5H-imidazo[1,2-a]thieno[3′,2′:4,5]pyrrolo[1,2-d]pyrazin-5-one], at most 49 nM. The same measure, in the same setting: in the case of `O=C1c2cc3ccsc3n2CC2(c3ccc(F)cc3)N1CCN2C(=O)C1CCCCC1` (centres unmarked) [Compound 14, 1-(cyclohexylcarbonyl)-11a-(4-fluorophenyl)-2,3,11,11a-tetrahydro-1H,5H-imidazo[1,2-a]thieno[3′,2′:4,5]pyrrolo[1,2-d]pyrazin-5-one] it was over 10000 nM; in that of `COc1ccc(C23Cn4c(cc5ncccc54)C(=O)N2CCN3C(=O)c2conc2C)cc1` (centres unmarked) [Compound 9, 12a-(4-methoxyphenyl)-1-[(3-methyl-1,2-oxazol-4-yl)carbonyl]-2,3,12,12a-tetrahydro-1H,5H-imidazo[1,2-a]pyrido[2′,3′:4,5]pyrrolo[1,2-d]pyrazin-5-one], 100 to 499 nM; in that of `Cc1nocc1C(=O)N1CCN2C(=O)c3cc4ncccc4n3CC12c1ccc(F)cc1` (centres unmarked) [Compound 12, 12a-(4-fluorophenyl)-1-[(3-methyl-1,2-oxazol-4-yl)carbonyl]-2,3,12,12a-tetrahydro-1H,5H-imidazo[1,2-a]pyrido[2′,3′:4,5]pyrrolo[1,2-d]pyrazin-5-one], 100 to 499 nM. As to `O=C(NCc1ccccc1)N1CCN2C(=O)c3cc4ccsc4n3CC12c1ccc(F)cc1` (centres unmarked) [Compound 23, N-benzyl-11a-(4-fluorophenyl)-5-oxo-2,3,11,11a-tetrahydro-1H,5H-imidazo[1,2-a]thieno[3′,2′:4,5]pyrrolo[1,2-d]pyrazine-1-carboxamide], the EC50 was over 10000 nM.
